From paper PMC7006766, “Coumarins from Magydaris pastinacea as inhibitors of the tumour-associated carbonic anhydrases IX and XII: isolation, biological studies and in silico evaluation” (Journal of Enzyme Inhibition and Medicinal Chemistry, 2020)
Where two headings read alike, the source gives them in different places.

Experiments:
hCA II = molecular target: T1, hCA II (Homo sapiens, UniProt P00918); format: biochemical
T1 construct: made in house

hCA IX = molecular target: T2, hCA IX (Homo sapiens, UniProt Q16790); format: biochemical; settings: for Ki: stopped flow, 6 h preincubation, mean of three assays
T2 construct: made in house

hCA XII [1] = molecular target: T3, hCA XII (Homo sapiens, UniProt O43570); test: biochemical; settings: stopped flow, 6 h preincubation, mean of three assays
T3 sequence (O43570 25-354): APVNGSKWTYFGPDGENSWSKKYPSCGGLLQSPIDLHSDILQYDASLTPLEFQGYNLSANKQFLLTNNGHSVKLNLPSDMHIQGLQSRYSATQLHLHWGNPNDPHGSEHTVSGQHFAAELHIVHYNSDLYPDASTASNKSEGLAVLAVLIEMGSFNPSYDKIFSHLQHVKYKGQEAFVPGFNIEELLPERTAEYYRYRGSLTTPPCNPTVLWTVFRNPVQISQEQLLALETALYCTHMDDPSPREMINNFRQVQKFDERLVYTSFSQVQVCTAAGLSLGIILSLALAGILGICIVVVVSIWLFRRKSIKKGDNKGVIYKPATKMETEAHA

hCA I = molecular target: T4, hCA I (Homo sapiens, UniProt P00915); format: biochemical
T4 construct: made in house
T4 sequence (P00915 whole entry): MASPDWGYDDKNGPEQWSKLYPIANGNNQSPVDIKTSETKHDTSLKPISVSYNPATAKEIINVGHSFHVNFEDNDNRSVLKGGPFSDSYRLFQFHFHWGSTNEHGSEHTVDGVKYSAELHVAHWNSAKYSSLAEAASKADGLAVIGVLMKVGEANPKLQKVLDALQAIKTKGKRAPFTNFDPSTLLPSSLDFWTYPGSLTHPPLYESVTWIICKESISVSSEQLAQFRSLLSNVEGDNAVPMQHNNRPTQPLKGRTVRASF

hCA XII [2] = molecular target: T3, hCA XII
HeLa cells = test: MTT cytotoxic assay in cancer HeLa cells; format: cell-based; settings: Homo sapiens, read-out: IC50 (concentration of compound that reduces the cell viability to 50%)
Protocol: Human carcinoma HeLa cell line was obtained from the American Type Culture Collection (ATCC, Rockville, MD). Cells were grown in Dulbecco’s modified Eagle’s medium (DMEM) with high glucose, supplemented with 10% foetal calf serum (FCS), penicillin (100 units/mL)–streptomycin (100 μg/mL), and 2 mM L-glutamine in a 5% CO2 incubator at 37 °C. Subcultures of the HeLa cells were grown in T-75 culture flasks and passaged with a trypsin-EDTA solution. Cell culture materials were purchased from Invitrogen (Milan, Italy).
The in vitro cytotoxic effect of coumarins 5, 9–12, 15 was evaluated in cancer HeLa cells by the MTT (3-(4,5-dimethylthiazol-2-yl)-2,5-diphenyltetrazolium bromide) reduction assay. Cancer cells were seeded in 96-well plates (density of 3 × 10^4 cells/mL) in 100 μL of medium and cultured for 48 h (80% of cell confluence). Cells were subsequently incubated for 48 h with various concentrations (0.1–100 μM, dissolved in DMSO) of coumarins in culture medium (treated cells). Treated cells were compared for viability to untreated cells (control cells) and vehicle-treated cells (incubated for 48 h with an equivalent volume of DMSO; the maximal final concentration was 1%). After the cell medium removing and washing, cells were subjected to the MTT test[35]. After incubation (3 h), colour development was measured at 570 nm with an Infinite 200 auto microplate reader (Infinite 200, Tecan, Austria); the absorbance is proportional to the number of viable cells. Two independent experiments were performed.

4T1 cells = settings: encapsulated in nanoliposomes vs free compound; cited from earlier work
[3] = stopped flow, 6 h preincubation, mean of three assays, read-out: Ki hCA II
[4] = stopped flow, 6 h preincubation, mean of three assays, read-out: Ki hCA I

In the case of `COc1c2ccoc2c(OC)c2oc(=O)ccc12` [Compound 3, isopimpinellin], the Ki (hCA II; [3]) is reported as over 10000 nM, the Ki (hCA IX) is reported as 160 nM and the Ki (hCA XII [1]) is reported as 590 nM. The Ki (hCA I; [4]) was over 10000 nM.
With `COc1c2ccoc2c(OCC=C(C)C)c2oc(=O)ccc12` [Compound 7, phellopterin] the Ki (hCA II; [3]) was over 10000 nM, the Ki (hCA IX) was 202 nM and the Ki (hCA XII [1]) was 787 nM. It also gave a Ki (hCA I; [4]) of over 10000 nM.
`CC1(C)O[C@@H]1COc1c2occc2cc2ccc(=O)oc12` [Compound 8, heraclenin] gave a Ki (hCA II) of over 10000 nM, a Ki (hCA IX) of 162 nM and a Ki (hCA I) of over 10000 nM.
For `COc1ccc2ccc(=O)oc2c1C[C@H](OC(C)=O)C(C)(C)O` [Compound 14, 2′-acetoxy-3′-hydroxy-osthol], the “Ki ratio IX/XII” value (hCA XII [2]; selectivity for hCA XII) was over 34, the Ki (hCA II; [3]) was over 10000 nM and the Ki (hCA IX) was over 10000 nM. The Ki (hCA XII [1]) was 291 nM and the Ki (hCA I; [4]) was over 10000 nM.
With `COc1c2ccoc2c(OC/C=C(\C)CO)c2oc(=O)ccc12` [Compound 5, E-5-methoxy-trichoclin] the IC50 (HeLa cells; HeLa, 48 h) was over 100000 nM, the Ki (hCA II; [3]) was over 10000 nM and the Ki (hCA IX) was 1500 nM. The Ki (hCA XII [1]) was 63.5 nM and the Ki (hCA I; [4]) was over 10000 nM.
In the case of `COc1c2ccoc2cc2oc(=O)ccc12` [Compound 1, begapten], the Ki (hCA II; [3]) is reported as over 10000 nM, the Ki (hCA IX) is reported as 1950 nM and the Ki (hCA XII [1]) is reported as 855 nM. It also gave a Ki (hCA I; [4]) of over 10000 nM.
`COc1c2occc2cc2ccc(=O)oc12` [Compound 2, xanthotoxin] showed a Ki (hCA II; [3]) of over 10000 nM, a Ki (hCA IX) of 195 nM and a Ki (hCA XII [1]) of 876 nM. For the same molecule, the Ki (hCA I; [4]) was over 10000 nM.
`CC(C)(O)[C@H](O)COc1c2occc2cc2ccc(=O)oc12` [Compound 9, (-)-heraclenol] gave an IC50 (HeLa cells; HeLa, 48 h) of over 100000 nM, a Ki (hCA II; [3]) of over 10000 nM and a Ki (hCA IX) of 27.5 nM. For the same molecule, the Ki (hCA XII [1]) was 814 nM and the Ki (hCA I; [4]) was over 10000 nM.
For `COc1ccc2ccc(=O)oc2c1C[C@@H]1OC1(C)C` [Compound 13, meranzin], the Ki (hCA II; [3]) was over 10000 nM, the “Ki ratio XII/IX (selectivity index hCA IX over hCA XII)” value (hCA IX) was over 5 and the Ki (hCA IX) was 1890 nM. It also gave a Ki (hCA XII [1]) of over 10000 nM and a Ki (hCA I; [4]) of over 10000 nM.
Molecule `COc1cc2ccc(=O)oc2c2c1O[C@H](C(C)(C)O)C2` [Compound 11, Magydarin] has an IC50 (HeLa cells; HeLa, 48 h) of over 100000 nM, a Ki (hCA II; [3]) of over 10000 nM and a Ki (hCA IX) of 151 nM. For the same molecule, the Ki (hCA XII [1]) was 623 nM and the Ki (hCA I; [4]) was over 10000 nM.
In the case of `CC(=O)O[C@@H](COc1c2occc2cc2ccc(=O)oc12)C(C)(C)O` [Compound 10, (+)-heraclenol acetate], the IC50 (HeLa cells; HeLa cells, MTT, measured at 48 h, normoxic) is reported as over 100000 nM, the Ki (hCA II; [3]) is reported as over 10000 nM and the “Ki ratio XII/IX (selectivity index hCA IX over hCA XII)” value (hCA IX) is reported as over 52. For the same molecule, the Ki (hCA IX) was 192 nM, the Ki (hCA XII [1]) was over 10000 nM and the Ki (hCA I; [4]) was over 10000 nM.
Molecule `C/C(=C\COc1c2occc2cc2ccc(=O)oc12)CO` [Compound 4, E-trichoclin] has a Ki (hCA II; [3]) of over 10000 nM, a Ki (hCA IX) of 2340 nM and a Ki (hCA XII [1]) of 550 nM. For the same molecule, the Ki (hCA I; [4]) was over 10000 nM.
In the case of `COc1ccc2ccc(=O)oc2c1CC=C(C)C` [Compound 12, osthol], the IC50 (HeLa cells; HeLa, 48 h) is reported as 98000 nM, the Ki (hCA II; [3]) is reported as over 10000 nM and the Ki (hCA IX) is reported as 2470 nM. The Ki (hCA XII [1]) was 74.5 nM and the Ki (hCA I; [4]) was over 10000 nM.
Molecule `CC(C)=CCOc1c2occc2cc2ccc(=O)oc12` [Compound 6, imperatorin] has a Ki (hCA II; [3]) of over 10000 nM, a Ki (hCA IX) of 221 nM and a Ki (hCA XII [1]) of 833 nM. For the same molecule, the Ki (hCA I; [4]) was over 10000 nM.
For `CC(C)=CCC/C(C)=C/CC/C(C)=C/COc1ccc2ccc(=O)oc2c1` [Compound 15, umbelliprenin], the IC50 (HeLa cells; HeLa, 48 h) is listed as 75000 nM, the “change of antiproliferative effect against 4T1 cells when encapsulated in nanoliposomes” value (4T1 cells) is listed as “increased by five folds” and the “Ki ratio I/XII” value (hCA XII [2]; selectivity over off-target CA I/II) is listed as over 1724. The Ki (hCA II; [3]) was over 10000 nM, the Ki (hCA IX) was 266 nM and the Ki (hCA XII [1]) was 5.8 nM. It also gave a Ki (hCA I; [4]) of over 10000 nM.
